Where two headings read alike, the source gives them in different places. Blank lines part the entries; values can stand above or below the molecule they belong to.
Tests used:
[1] = target: T1, wild-type EGFR (WT-EGFR) (Homo sapiens, UniProt P00533); assay: TR-FRET fluorescent probe displacement assay; format: binding
T1 construct: made in house; host or cells: SF9 insect cells (MultiBac)
Experimental: Compounds (dissolved to 100 mM in DMSO) were dispensed into black low volume 384 well assay plates (Corning) over a final concentration range of 100,000, 30,000, 10,000, 3000, 1000, 300, 100, 30, 10, and 3 nM using an Echo 550 (Labcyte). Positive control compound and DMSO as a negative control were dispensed into the first and last well, respectively. Each well was backfilled with DMSO to a final volume of 200 nL, resulting in final assay DMSO concentrations of 1%. […] The data were analyzed using Graphpad Prism/Dotmatics Studies Software. Assays conducted in technical replicate and repeated as a biological duplicate.

[2] = target: mLTC-EGFR (Homo sapiens, UniProt P00533, C797S/L858R/T790M); assay: Intact protein mass spectrometry, covalent adduct formation; format: binding; settings: for Protein adduct formation: adduct stoichiometry by intact protein mass spectrometry; for covalent adduct formation, in words: intact protein mass spectrometry
[3] = test system: BAF EGFR L858R cells; settings: BAF EGFR cell line; published compound, reference number not given; cited from earlier work
[4] = test system: BAF EGFR L858R/C775S cells; settings: BAF EGFR cell line; published compound, reference number not given; cited from earlier work
[5] = test system: EGFR; assay: Time-course of EGFR modification by mass spectrometry; format: binding; settings: within 10 min
Experimental: Peptides were detected in positive ion mode using electrospray ionization with nebulizer pressure of 35 psi, drying gas flow of 13 L/min and source gas temperature of 290 °C. Sheath gas temperature of 275 °C and gas flow of 12 L/min, capillary voltage of 4000 V and nozzle voltage of 300 V were also applied. Mass spectra were acquired using MassHunter Acquisition software (version B.08.00) over 100–1700 m/z range, at a rate of 5 spectra/s and 200 ms/spectrum, using standard mass range mode (3200 m/z) with extended dynamic range (2 GHz) and collection of both centroid and profile data. MS/MS fragmentation spectra were acquired over 100–3000 m/z range, at a rate of 3 spectra/s and 333.3 ms/spectrum. Acquired MS and MS/MS spectra were analyzed using Agilent MassHunter BioConfirm software (version B.10.00) against known amino acid sequences for EGFR for confirmation of covalent binding at Cys775. For the time course study, 150 μL EGFR (0.15 mg/mL) was incubated with compound 25328 to final concentration of 15 μM in a buffer solution of 20 mM Tris pH 8, 150 mM NaCl, 4% glycerol, 1 mM TCEP, 1% DMSO. […] Intact protein analysis perform as detailed above.

[6] = test system: EGFR phosphorylation (Tyr1068) in H1975 (L858R, T790M) cells; assay: HTRF cellular EGFR phosphorylation; format: cell-based; settings: Homo sapiens, NCI-H1975; read-out: pEGFR IC50 by HTRF
Experimental: Cells were plated at 20,000 cells per well in 96-well plates and placed at 37 °C with 5% CO2. Compounds were reconstituted in DMSO. Once adhered (after 24 h), cells were treated with compounds at a final concentration of 0.1% DMSO in media. Compounds were added to duplicate wells and incubated 37 °C for 3 h with 5% CO2. For A431 cells 0.5 h before the end of incubation; 100 ng/mL of EGF (Thermo Fisher, Cat. No. PHG0311) was added to all compound-treated cells as well as control. Compound and media were removed from the cells, and then 50 μL of HTRF lysis buffer was added (lysis buffer was diluted from 4× stock to 1× in deionized (DI) water, with 1% blocking agent also added). Cells were lysed on a plate shaker (2000 rpm) for 30 min at room temperature. pEGFR expression was assessed using the Human Phospho-EGFR (Tyr1068) cellular detection kit (Revvity, Cat. No. 64EG1PEH). Total EGFR expression was monitored using the Human Total EGFR cellular detection kit (Revvity, Cat. No. 64NG1PEH) as per the manufacturer’s instructions. […] Results were calculated as the ratio of pEGFR/total EGFR and then the percentage of 0 μM control.

[7] = test system: EGFR phosphorylation (Tyr1068) in H1975 (L858R, T790M) cells; assay: Western blot of EGFR phosphorylation; format: cell-based
[8] = target: recombinant doubly mutated EGFR L858R, T790M kinase domain (mLT-EGFR) (Homo sapiens, UniProt P00533, L858R/T790M); assay: Kinetic analysis (AssayQuant); format: biochemical; settings: for Ki: read-out: KI app
Experimental: Measurement of K I, K inact and K inact/K I was carried out by AssayQuant Technologies inc.

[9] = TR-FRET, n > 3, read-out: WT-EGFR IC50
[10] = TR-FRET, n > 3, read-out: WT-EGFR pIC50 ± std dev (converted)
[11] = supplementary csv, read-out: WT pIC50 (converted)
[12] = TR-FRET, read-out: WT-EGFR IC50

IC50 [1, 9]: 0.1 µM
IC50 [1, 10]: 0.1 µM
IC50 [1, 11]: 0.1 µM
Structure (SMILES): C#Cc1cc(=O)n(-c2ccccc2)c2nc(Nc3ccc(N4CCN(C)CC4)cc3OC)ncc12 [Compound 8, 5-Ethynyl-2-(2-methoxy-4-(4-methylpiperazine-1-ylphenyl)amino)-8-phenylpyrido[2,3-d]pyrimidin-7(8H)-one]

Protein adduct formation [2]: 0
Structure (SMILES): C=CC(=O)NCc1cc(=O)n(-c2ccccc2)c2nc(Nc3ccccc3OC)ncc12 [Compound S4]

Protein adduct formation [2]: 1-4
Structure (SMILES): C#CC(=O)Nc1ccccc1Oc1ccc(-c2nn(C)c3ncnc(N)c23)cc1 [Compound S9]

IC50 [1, 10]: 15.8 µM
IC50 [1, 12]: 15 µM
Structure (SMILES): COc1ccccc1Nc1ncc2ccc(=O)n(-c3ccccc3)c2n1 [Compound S10]

Protein adduct formation [2]: 0
Structure (SMILES): C=CC(=O)NCc1cccc(-c2nn(C)c3ncnc(N)c23)c1 [Compound S3]

Structure (SMILES): C=CC(=O)Nc1cc(C(=O)Nc2nc3cccc(Cl)c3n2[C@@H]2CCCCN(C(=O)C=C)C2)cs1 [dual C775–C797 inhibitor]
GI50 [3]: 0.01 µM
GI50 [4]: 0.02 µM

Protein adduct formation [2]: 1
Structure (SMILES): C=CC(=O)Nc1cccc(-c2nn(C)c3ncnc(N)c23)c1 [Compound S1]

IC50 [1, 9]: 0.057 µM
IC50 [1, 10]: 0.0631 µM
Structure (SMILES): C#Cc1cc(=O)n(-c2ccccc2)c2nc(Nc3ccc(N4CCOCC4)cc3OC)ncc12 [Compound 5, 5-Ethynyl-2-((2-methoxy-4-morpholinophenyl)amino)-8-phenylpyrido[2,3-d]pyrimidin-7(8H)-one]

IC50 [1, 9]: 4.1 µM
IC50 [1, 10]: 3.16 µM
Structure (SMILES): C#Cc1cc(=O)n(-c2ccccc2)c2nc(Nc3ccc(N(C)C(=O)CCOC)cc3OC)ncc12 [Compound 11, N-(4-((5-Ethynyl-7-oxo-8-phenyl-7,8-dihydropyrido[2,3-d]pyrimidin-2-yl)amino)-3-methoxyphenyl)-3-methoxy-N-methylpropanamide]

covalent adduct formation, in words [2]: reduced protein modulation
IC50 [1, 10]: > 100 µM
IC50 [1, 12]: > 100 µM
Structure (SMILES): C=Cc1cc(=O)n(-c2ccccc2)c2nc(Nc3ccccc3OC)ncc12 [Compound S11]

Structure (SMILES): C#Cc1cc(=O)n(-c2ccccc2)c2nc(Nc3ccccc3OC)ncc12 [Compound 3, 5-Ethynyl-2-[(2-methoxyphenyl)amino]-8-phenylpyrido[2,3-d]pyrimidin-7-one]
protein modified [5]: Over 50%
IC50 [6]: > 3 µM
inhibition of pEGFR (Western blot) ([7]; H1975, 10 μM, 4 h): showed inhibition of pEGFR

kinact [8]: 0.0035 ± 0.00072 s⁻¹
kinact/KI [8]: 1.8e+07 ± 480000 M⁻¹ s⁻¹
Ki [8]: 0.2 ± 0.045 µM
IC50 [1, 9]: 3.3 µM
IC50 [1, 10]: 3.16 µM
Structure (SMILES): C#Cc1cc(=O)n(-c2ccccc2)c2nc(Nc3ccc(N(C)C(=O)COC)cc3OC)ncc12 [Compound 10, N-(4-((5-Ethynyl-7-oxo-8-phenyl-7,8-dihydropyrido[2,3-d]pyrimidin-2-yl)amino)-3-methoxyphenyl)-2-methoxy-N-methylacetamide]

Protein adduct formation [2]: 0-1
Structure (SMILES): C=CC(=O)Nc1ccccc1Oc1ccc(-c2nn(C)c3ncnc(N)c23)cc1 [Compound S8]

kinact [8]: 0.0051 ± 0.00061 s⁻¹
kinact/KI [8]: 3.3e+07 ± 440000 M⁻¹ s⁻¹
Ki [8]: 0.16 ± 0.02 µM
IC50 [1, 9]: 5.1 µM
IC50 [1, 10]: 5.01 µM
Structure (SMILES): C#Cc1cc(=O)n(-c2ccccc2)c2nc(Nc3ccc(N(C)C(=O)CN(C)C)cc3OC)ncc12 [Compound 12, 2-(Dimethylamino)-N-(4-((5-ethynyl-7-oxo-8-phenyl-7,8-dihydropyrido[2,3-d]pyrimidin-2-yl)amino)-3-methoxyphenyl)-N-methylacetamide]

IC50 [1, 12]: 48 ± 16 µM
IC50 [1, 11]: 50.1 µM
Structure (SMILES): C#Cc1cc(-c2cnn3ccccc23)nc(Nc2ccccc2)n1 [Compound 2, 4-Ethynyl-N-phenyl-6-(pyrazolo[1,5-a]pyridin-3-yl)pyrimidin-2-amine]
covalent adduct formation, in words [2]: addition of a single adduct by mass spectrometry and a small amount of double adduct

Structure (SMILES): C=CC(=O)Nc1cc(Nc2nccc(-c3cn(C)c4ccccc34)n2)c(OC)cc1N(C)CCN(C)C [osimertinib, reference compound]
inhibition of EGFR and ERK1/2 phosphorylation (Western blot) ([7]; H1975, 4 h exposure, concentration series): inhibition of EGFR and ERK1/2 phosphorylation was evident

Protein adduct formation [2]: 0
Structure (SMILES): C=CC(=O)NCCOc1ccc(-c2nn(C)c3ncnc(N)c23)cc1 [Compound S7]

covalent adduct formation, in words [2]: little to no modification
IC50 [1, 10]: > 100 µM
IC50 [1, 12]: > 100 µM
Structure (SMILES): CC#Cc1cc(=O)n(-c2ccccc2)c2nc(Nc3ccccc3OC)ncc12 [Compound S12]

kinact [8]: 0.02 ± 0.0041 s⁻¹
kinact/KI [8]: 8.2e+08 ± 8.3e+06 M⁻¹ s⁻¹
Ki [8]: 0.024 ± 0.0052 µM
IC50 [1, 9]: 0.077 µM
IC50 [1, 10]: 0.0794 µM
Structure (SMILES): C#Cc1cc(=O)n(-c2ccccc2)c2nc(Nc3ccc(N4CCN(C)CC4)cc3)ncc12 [Compound 9, 5-Ethynyl-2-((4-(4-methylpiperazin-1-yl)phenyl)amino)-8-phenylpyrido[2,3-d]pyrimidin-7(8H)-one]

Protein adduct formation [2]: 1-3
Structure (SMILES): C#CC(=O)Nc1cccc(-c2nn(C)c3ncnc(N)c23)c1 [Compound S2]

Protein adduct formation [2]: 1-2
Structure (SMILES): C#CC(=O)NCc1cc(=O)n(-c2ccccc2)c2nc(Nc3ccccc3OC)ncc12 [Compound S5]

kinact [8]: 0.0061 ± 0.00035 s⁻¹
kinact/KI [8]: 3.7e+08 ± 3.8e+06 M⁻¹ s⁻¹
Ki [8]: 0.016 ± 0.0011 µM
IC50 [1, 9]: 0.069 µM
IC50 [1, 10]: 0.0631 µM
Structure (SMILES): C#Cc1cc(=O)n(-c2ccccc2)c2nc(Nc3ccc(N4CCOCC4)cc3)ncc12 [Compound 6, 5-Ethynyl-2-((4-morpholinophenyl)amino)-8-phenylpyrido[2,3-d]pyrimidin-7(8H)-one]
